The structures appear in SMILES notation. A value given as a limit tells only on which side of the number the result lay.

The values below come from US8748600B2, “Cyclic triazo sodium channel blockers” (University of Greenwich, priority 2009, dated 2014).

Test [1] deals with T1, DiHydroFolate Reductase (DHFR) (Rattus norvegicus, UniProt Q920D2).
T1 construct: from tissue; host or cells: rat liver homogenate, 47,500 x g supernatant
T1 sequence (Q920D2 1-187): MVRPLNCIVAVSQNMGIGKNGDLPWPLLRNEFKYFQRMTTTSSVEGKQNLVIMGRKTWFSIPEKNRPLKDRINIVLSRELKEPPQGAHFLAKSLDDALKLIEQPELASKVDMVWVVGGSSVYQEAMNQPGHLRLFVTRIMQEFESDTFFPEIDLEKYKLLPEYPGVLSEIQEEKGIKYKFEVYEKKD
As to the kind of experiment: Inhibition of binding of [3H]methotrexate to rat liver homogenate supernatant (DHFR). The following applies: read-out: DHFR (% inhibition @ 125 μm). On the procedure: All steps were carried out at 4° (or on ice). Freshly dissected rat liver was dissected into 0.25M ice-cold Sucrose and subsequently homogenised (U-turrax) in 50 mM pH 6.0 phosphate buffer (10 ml/g tissue) containing 15 mM Dithiothreitol. The resulting homogenate was centrifuged @ 47,500×g for 20 min and supernatant (filtered through cotton wool to remove fatty lumps) stored @-80° before use (Rothenberg et al).
Inhibition of the binding of [^3H]methotrexate to rat liver homogenate supernatant fractions were carried out essentially as described by Arons et al, 1975.

Test [2] concerns the target sodium channel (Nach). In words: Inhibition of binding of [3H]BTX-B to rat forebrain homogenates. The settings on record: extrapolated IC50; [3H]BTX-B binding. On the procedure:
Experiments were performed using forebrain (whole brain less cerebellum/medulla) from Male Wistar rats weighing 175-250 g. All efforts were made to reduce the number of animals used and all experiments were carried out in accordance with the UK Animals (Scientific Procedures) Act, 1986 and the European Community Council Directive of 24 Nov. 1986 (86/609/EEC). Following killing of animals by stunning and decapitation, the forebrain (whole brain less cerebellum/medulla) was rapidly dissected and transferred to a weighed tube containing ice-cold 0.25M sucrose.
Homogenates were prepared by transferring the known weight of forebrain to a cooled tube containing 9 volumes of ice-cold 50 mM pH 7.4 HEPES buffer. The mixture was homogenised @ 4° by 3×5 sec bursts of an Ultra-Turrax™ homogeniser set at maximum speed. The resulting homogenate was centrifuged at 40,000×g (average) at 4° for 15 min and the supernatant discarded. The resulting pellet was resuspended in 9 volumes of fresh ice-cold pH 7.4 buffer (as above), the centrifugation step was repeated and the resulting pellet resuspended in the [^3H]BTX-B binding buffer at a concentration of 20-25 mg wet weight per ml assay buffer.
Both assays were carried out using 14 ml polypropylene test tubes to which a range of concentrations of the compounds under test were added.
[^3H]BTX-B binding was carried out using the method described by Catterall et al (1981), except that both bovine serum albumin and TTX were omitted from the incubation medium.
IC50 values were obtained from radioligand displacement or guanidine flux inhibition curves by plotting log10 concentration vs bound ligand/guanidine uptake according the equation:— y=Rmin+Rsp/{1+exp [−n(x−C)]}
and • C=IC50 (i.e. concentration required to inhibit 50% of specific binding Hippocampal Slice Assay

Consider `Nc1nnc(-c2cccc(OCc3cccc4ccccc34)c2)c(N)n1` [CEN-245], for which the inhibition at […] in test [1] turned out to be 55%. In addition, the IC50 in test [2] is 57 µM.
With `Nc1nnc(C2CC2c2ccccc2)c(N)n1` (stereo not drawn) [CEN-238], the IC50 in test [2] is greater than 190 µM.
As for `Nc1nnc(C2(c3ccccc3)CC2)c(N)n1` [CEN-240], in test [1], the inhibition at […] turned out to be 8%.
As to `Cc1ccc(C2(c3nnc(N)nc3N)CCCC2)cc1` [CEN-237], in test [1], the inhibition at […] was 70%. Moreover, the IC50 in test [2] was less than 0.5 µM.
For `Nc1nnc(C2(c3ccccc3)CCCC2)c(N)n1` [CEN-232] the same measures were 100% and 5 µM.
On the same counts, the results for `Nc1nnc(C2(c3ccc(Cl)cc3Cl)CC2)c(N)n1` [CEN-235] are 63% and 8 µM.
With `COc1ccc(C2(c3nnc(N)nc3N)CCCCC2)cc1` [CEN-231], the IC50 in test [2] is 1 µM.
On to `Nc1nnc(C(Cc2ccccc2)c2ccccc2)c(N)n1` (stereo not drawn) [CEN-241], for which the inhibition at […] in test [1] amounted to 90%.
`Cc1ccc(C2(c3nnc(N)nc3N)CCCCC2)cc1` [CEN-239]: the inhibition at […] in test [1] stood at 73%. For the same compound, in test [2], the IC50 is less than 0.5 µM.
For `Nc1nnc(C(c2ccc(F)cc2)c2ccc(F)cc2)c(N)n1` [CEN-247] the same measures were 0% and 9 µM.
For `COc1ccc(C2(c3nnc(N)nc3N)CCCC2)cc1` [CEN-234] the same measures were 22% and 3 µM.
For `COc1ccc(C2(c3nnc(N)nc3N)CC2)cc1` [CEN-244] the same measures were 0% and 115 µM.
Consider `Nc1nnc(C2(c3cccc(F)c3)CCCC2)c(N)n1` [CEN-236], for which the inhibition at […] in test [1] stood at 14%. Moreover, the IC50 in test [2] is 4 µM.
For `Nc1nnc(C2(c3ccccc3)CCCCC2)c(N)n1` [CEN-230] the same measures were 0% and 23 µM.

The term inhibition denotes the share of the control response that was lost under treatment. A word on the IC50: it is the concentration needed to halve the response being measured.
